The structures appear in SMILES notation.

The nature of this assay: DPPH radical scavenging antioxidant test. The class given is biochemical. Conditions: 517 nm; for Inhibition (radical scavenging inhibition): DPPH 0.2 mL (0.75 mM), compound 3 μM in ethanol, 30 minutes in the dark. As to the method:
The antioxidant activity of 6′-(3-bromophenyl)-2′-methoxy-3,4′-bipyridine-3′-carbonitrile was investigated by 2,2-diphenyl-1-picrylhydrazyl (DPPH) in vitro tests that employ vitamin C as the positive control.
The antioxidant properties of the 6′-(3-bromophenyl)-2′-methoxy-3,4′-bipyridine-3′-carbonitrile compound were studied by adding 0.2 mL DPPH (0.75 mM)) to 6′-(3-bromophenyl)-2′-methoxy-3,4′-bipyridine-3′-carbonitrile (3 μM) (4) in ethanol. After 30 minutes of incubation in the dark, the absorbance was read against a blank at 517 nm. Ascorbic acid (vitamin C) was used as standard antioxidants (positive control). A blank sample was prepared by 0.2 mL of DPPH in 3 mL ethanol. A negative control sample was run using ethanol instead of the sample. The radical scavenging inhibition was calculated using the following equation: […]
The antioxidant activity for the synthesized compound is listed in Table 1, using Vitamin C as a reference.

Turning to `COc1nc(-c2cccc(Br)c2)cc(-c2cccnc2)c1C#N` [Product 4, 6′-(3-bromophenyl)-2′-methoxy-3,4′-bipyridine-3′-carbonitrile], the “Inhibition (radical scavenging inhibition)” value is 50%. Further, the “antioxidant potential compared to vitamin C” value (DPPH in vitro test, vitamin C as positive control) is recorded as “high potential as an antioxidant”.

`O=C1O[C@H]([C@@H](O)CO)C(O)=C1O` [vit c, Ascorbic acid, reference compound]: the “Inhibition (radical scavenging inhibition)” value is listed as 74%.

(Values after patent US11926593B1, “6′-(3-bromophenyl)-2′-methoxy-3,4′-bipyridine-3′-carbonitrile as an antioxidant compound” (KING FAISAL UNIVERSITY, priority 2023, dated 2024).)
